Assay results taken from patent US20250082931A1, “Treating Gastric Cancer Using TTFields Combined with XELOX, FOLFOX or the Individual Constituents Thereof” (Novocure GmbH, priority 2019, published 2025).

What was measured:
KATO III cells [1] = assay: Overall effect (cytotoxic effect x clonogenic effect); details: 72 h, one experiment
Experimental: (§1) After 6-14 days the colonies were fixed, stained and counted to determine clonogenic effect. The overall effect was calculated by multiplying the cytotoxic effect and the clonogenic effect.
(§2) Overall effect: Each colony number was multiply in the percent of cytotoxic effect of its dish and averages and standard deviations of each treatment were calculated in Excel software. […] Significant was determine by 2-way ANOVA followed Multiple comparison using GraphPed software.

KATO III cells [2] = assay: Cytotoxic effect by cell count after 72 h, with and without TTFields
Experimental: (§3) During the treatment the media of all dishes was replaced every 24 h (“hours”).
(§4) After 72 h of treatment the media and the cells were collected, and cytotoxicity was determined by cell counts.
(§5) Cells were seeded on inovitro dishes and petri dishes 24 h before starting the experiments. Media containing the indicated concentration of each chemotherapy component alone or FOLFOX and control media was added to the cells and the dishes were connected to TTFields (as in SOP-BI-009) or grown in 37° C., 5% CO2 for 72 h. Each treatment included 8 repeats (8 dishes). The media was replaced every 24 h. At the end of the experiment the cells were collected, and cytotoxicity was determined by cell counts, small number of cells were seeded for colonies and the cells (including cells from the media) were stained for Annexin V and 7AAD for apoptosis analysis.
(§6) A TTFields generator (Inovitro systems) was used to apply the treatment to the cells.
(§7) Cytotoxic effect: Average and standard deviation of cell number of at least 5 dishes from each treatment was calculated in Excel software. The averages from these repeats was calculated to averages and standard error and is presented as percent from control (no drug treatment) in XY graph of points with error bars using GraphPed software. Significant was determine by 2-way ANOVA followed Multiple comparison using GraphPed software.

KATO III cells [3] = assay: Clonogenic effect (colonies count); details: for colonies count: 72 h, one experiment;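 as to all read-outs here: after treatment, KATO III cells were reseeded and grown 6–14 days, then colonies were fixed, stained and counted, expressed as percent of untreated (no drug) control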
Experimental: (§8) After 72 h of treatment the media and the cells were collected, and cytotoxicity was determined by cell counts. […] For the testing of the clonogenic effect, cells were seeded for colonies.
as §1
(§9) Clonogenic effect: The colonies from each well were counted using ImageJ software. Average and standard deviation of colony number of at least 5 wells from each treatment were calculated in excel software. The averages from these repeats was calculated to averages and standard errors and is presented as percent from control (no drug treatment) in XY graph of points with error bars using GraphPed software. Significant was determine by 2-way ANOVA followed Multiple comparison using GraphPed software.

AGS cells [4] = tested on: AGS cells
Experimental: as §3, §4, §5, §6, §7

AGS cells [5] = assay: Overall effect (cytotoxic effect x clonogenic effect); type: cell-based; details: 72 h
Experimental: as §1, §2

KATO III cells [6] = tested on: KATO III cells
Experimental: as §3, §4, §5, §6, §7

AGS cells [7] = assay: Clonogenic effect (colonies count); type: cell-based; details: for colonies count: 72 h
Experimental: as §8, §1, §9

AGS cells [8] = assay: Apoptosis analysis by Annexin V / 7AAD staining; type: cell-based; details: for AnnV+ 7AAD+ cell fraction / AnnV+ 7AAD− cell fraction / AnnV− 7AAD+ cell fraction / AnnV− 7AAD− cell fraction: 72 h
Experimental: (§10) After 72 h of treatment the media and the cells were collected, and cytotoxicity was determined by cell counts. Cells (including cells from the media) were stained for Annexin V and 7AAD for apoptosis analysis. For the testing of the clonogenic effect, cells were seeded for colonies.
as §5
(§11) Apoptotic effect: Average of cell fraction of each marker staining (Annexin V and 7AAD) of at least 5 dishes from each treatment was calculated in Excel software. The averages from these repeats was calculated to averages and is presented in stacked bar graph using GraphPed software.

KATO III cells [9] = assay: Apoptosis analysis by Annexin V / 7AAD staining; type: cell-based; details: for AnnV+ 7AAD+ cell fraction / AnnV+ 7AAD− cell fraction / AnnV− 7AAD+ cell fraction / AnnV− 7AAD− cell fraction: 72 h
Experimental: as §10, §5, §11

AGS cells [10] = assay: Cytotoxic effect by cell count after 72 h, with and without TTFields
Experimental: as §3, §4, §5, §6, §7

[11] = 2.5 uM, + TTFields 150 kHz 1.6 V/cm
[12] = 5 uM, + TTFields 150 kHz 1.6 V/cm
[13] = 10 uM, + TTFields 150 kHz 1.6 V/cm
[14] = 2.5 uM, + TTFields 150 kHz 1.6 V/cm, one experiment
[15] = 2.5 uM, no TTFields, one experiment
[16] = 5 uM, + TTFields 150 kHz 1.6 V/cm, one experiment
[17] = 5 uM, no TTFields, one experiment
[18] = 10 uM, + TTFields 150 kHz 1.6 V/cm, one experiment
[19] = 10 uM, no TTFields, one experiment
[20] = FOLFOX experiment, 5 uM, no TTFields
[21] = 0.2 uM, + TTFields 150 kHz 1.0 V/cm, one experiment
[22] = 0.2 uM, no TTFields, one experiment
[23] = 1 uM, + TTFields 150 kHz 1.0 V/cm, one experiment
[24] = 1 uM, no TTFields, one experiment
[25] = 5 uM, + TTFields 150 kHz 1.0 V/cm, one experiment
[26] = FOLFOX experiment, 5 uM, + TTFields 150 kHz 1.0 V/cm
[27] = 10 uM, + TTFields 150 kHz 1.0 V/cm, one experiment
[28] = FOLFOX experiment, 10 uM, + TTFields 150 kHz 1.6 V/cm
[29] = FOLFOX experiment, 10 uM, no TTFields

Nc1nc2c(c(=O)[nH]1)N(C=O)C(CNc1ccc(C(=O)N[C@@H](CCC(=O)O)C(=O)O)cc1)CN2 (stereo partly drawn) [Leucovorin]
overall effect (colonies count multiplying the cytotoxic effect) (KATO III cells [1]; [11]): 32 % from control | overall effect (colonies count multiplying the cytotoxic effect) (KATO III cells [1]; 2.5 uM, no TTFields): 106 % from control | overall effect (colonies count multiplying the cytotoxic effect) (KATO III cells [1]; [12]): 35 % from control | overall effect (colonies count multiplying the cytotoxic effect) (KATO III cells [1]; 5 uM, no TTFields): 81 % from control | overall effect (colonies count multiplying the cytotoxic effect) (KATO III cells [1]; [13]): 27 % from control | overall effect (colonies count multiplying the cytotoxic effect) (KATO III cells [1]; 10 uM, no TTFields): 78 % from control | cell count (KATO III cells [2]; [14]): 58 % from control | cell count (KATO III cells [2]; [15]): 106 % from control | cell count (KATO III cells [2]; [16]): 51 % from control | cell count (KATO III cells [2]; [17]): 107 % from control | cell count (KATO III cells [2]; [18]): 47 % from control | cell count (KATO III cells [2]; [19]): 90 % from control | cell count (KATO III cells [2]; FOLFOX experiment, 5 uM, + TTFields 150 kHz 1.6 V/cm): 49 % from control | cell count (KATO III cells [2]; [20]): 102 % from control | colonies count (KATO III cells [3]; [11]): 60 % from control | colonies count (KATO III cells [3]; 2.5 uM, no TTFields): 100 % from control | colonies count (KATO III cells [3]; [12]): 68 % from control | colonies count (KATO III cells [3]; 5 uM, no TTFields): 79 % from control | colonies count (KATO III cells [3]; [13]): 62 % from control | colonies count (KATO III cells [3]; 10 uM, no TTFields): 91 % from control | clonogenic effect of drug alone (KATO III cells [3]; without TTFields): does not show | cytotoxic effect of drug alone (AGS cells [4]): does not show | overall effect (colonies count multiplying the cytotoxic effect) (AGS cells [5]; [21]): 42.9 % from control | overall effect (colonies count multiplying the cytotoxic effect) (AGS cells [5]; [22]): 86.6 % from control | overall effect (colonies count multiplying the cytotoxic effect) (AGS cells [5]; [23]): 36.7 % from control | overall effect (colonies count multiplying the cytotoxic effect) (AGS cells [5]; [24]): 89.7 % from control | overall effect (colonies count multiplying the cytotoxic effect) (AGS cells [5]; [25]): 41.7 % from control | overall effect (colonies count multiplying the cytotoxic effect) (AGS cells [5]; [17]): 88.8 % from control | overall effect (colonies count multiplying the cytotoxic effect) (AGS cells [5]; [26]): 41 % from control | overall effect (colonies count multiplying the cytotoxic effect) (AGS cells [5]; [20]): 88 % from control | cytotoxic effect of drug alone (KATO III cells [6]): does not show | colonies count (AGS cells [7]; [21]): 70 % from control | colonies count (AGS cells [7]; [22]): 88 % from control | colonies count (AGS cells [7]; [23]): 77 % from control | colonies count (AGS cells [7]; [24]): 87 % from control | colonies count (AGS cells [7]; [25]): 70 % from control | colonies count (AGS cells [7]; [17]): 95 % from control | colonies count (AGS cells [7]; [26]): 69 % from control | colonies count (AGS cells [7]; [20]): 103 % from control | clonogenic effect of drug alone (AGS cells [7]; without TTFields): does not show | AnnV+ 7AAD+ cell fraction (AGS cells [8]; [21]): 5.34% | AnnV+ 7AAD− cell fraction (AGS cells [8]; [21]): 4.69% | AnnV− 7AAD+ cell fraction (AGS cells [8]; [21]): 2.18% | AnnV− 7AAD− cell fraction (AGS cells [8]; [21]): 87.79% | AnnV+ 7AAD+ cell fraction (AGS cells [8]; [22]): 2.25% | AnnV+ 7AAD− cell fraction (AGS cells [8]; [22]): 3.42% | AnnV− 7AAD+ cell fraction (AGS cells [8]; [22]): 2.19% | AnnV− 7AAD− cell fraction (AGS cells [8]; [22]): 92.14% | AnnV+ 7AAD+ cell fraction (AGS cells [8]; [25]): 5.55% | AnnV+ 7AAD− cell fraction (AGS cells [8]; [25]): 5.61% | AnnV− 7AAD+ cell fraction (AGS cells [8]; [25]): 3.04% | AnnV− 7AAD− cell fraction (AGS cells [8]; [25]): 85.8% | AnnV+ 7AAD+ cell fraction (AGS cells [8]; [17]): 2.29% | AnnV+ 7AAD− cell fraction (AGS cells [8]; [17]): 4.12% | AnnV− 7AAD+ cell fraction (AGS cells [8]; [17]): 1.02% | AnnV− 7AAD− cell fraction (AGS cells [8]; [17]): 92.57% | AnnV+ 7AAD+ cell fraction (AGS cells [8]; [27]): 3.74% | AnnV+ 7AAD− cell fraction (AGS cells [8]; [27]): 6.27% | AnnV− 7AAD+ cell fraction (AGS cells [8]; [27]): 2.72% | AnnV− 7AAD− cell fraction (AGS cells [8]; [27]): 87.27% | AnnV+ 7AAD+ cell fraction (AGS cells [8]; [19]): 2.84% | AnnV+ 7AAD− cell fraction (AGS cells [8]; [19]): 5.62% | AnnV− 7AAD+ cell fraction (AGS cells [8]; [19]): 1.01% | AnnV− 7AAD− cell fraction (AGS cells [8]; [19]): 90.54% | AnnV+ 7AAD+ cell fraction (AGS cells [8]; [26]): 10.2% | AnnV+ 7AAD− cell fraction (AGS cells [8]; [26]): 6.6% | AnnV− 7AAD+ cell fraction (AGS cells [8]; [26]): 2.4% | AnnV− 7AAD− cell fraction (AGS cells [8]; [26]): 80.7% | AnnV+ 7AAD+ cell fraction (AGS cells [8]; [20]): 4.3% | AnnV+ 7AAD− cell fraction (AGS cells [8]; [20]): 5.3% | AnnV− 7AAD+ cell fraction (AGS cells [8]; [20]): 2.6% | AnnV− 7AAD− cell fraction (AGS cells [8]; [20]): 87.7% | apoptotic effect of drug alone (AGS cells [8]; without TTFields): does not show | AnnV+ 7AAD+ cell fraction (KATO III cells [9]; [14]): 18.45% | AnnV+ 7AAD− cell fraction (KATO III cells [9]; [14]): 39.43% | AnnV− 7AAD+ cell fraction (KATO III cells [9]; [14]): 0.3% | AnnV− 7AAD− cell fraction (KATO III cells [9]; [14]): 41.82% | AnnV+ 7AAD+ cell fraction (KATO III cells [9]; [15]): 8.51% | AnnV+ 7AAD− cell fraction (KATO III cells [9]; [15]): 24.86% | AnnV− 7AAD+ cell fraction (KATO III cells [9]; [15]): 0.06% | AnnV− 7AAD− cell fraction (KATO III cells [9]; [15]): 66.57% | AnnV+ 7AAD+ cell fraction (KATO III cells [9]; [16]): 25.55% | AnnV+ 7AAD− cell fraction (KATO III cells [9]; [16]): 36.56% | AnnV− 7AAD+ cell fraction (KATO III cells [9]; [16]): 0.2% | AnnV− 7AAD− cell fraction (KATO III cells [9]; [16]): 37.69% | AnnV+ 7AAD+ cell fraction (KATO III cells [9]; [17]): 9.4% | AnnV+ 7AAD− cell fraction (KATO III cells [9]; [17]): 36.5% | AnnV− 7AAD+ cell fraction (KATO III cells [9]; [17]): 0.12% | AnnV− 7AAD− cell fraction (KATO III cells [9]; [17]): 53.98% | AnnV+ 7AAD+ cell fraction (KATO III cells [9]; [18]): 28.48% | AnnV+ 7AAD− cell fraction (KATO III cells [9]; [18]): 35.82% | AnnV− 7AAD+ cell fraction (KATO III cells [9]; [18]): 0.4% | AnnV− 7AAD− cell fraction (KATO III cells [9]; [18]): 35.3% | AnnV+ 7AAD+ cell fraction (KATO III cells [9]; [19]): 12.64% | AnnV+ 7AAD− cell fraction (KATO III cells [9]; [19]): 39.85% | AnnV− 7AAD+ cell fraction (KATO III cells [9]; [19]): 1.01% | AnnV− 7AAD− cell fraction (KATO III cells [9]; [19]): 46.5% | AnnV+ 7AAD+ cell fraction (KATO III cells [9]; [28]): 33.83% | AnnV+ 7AAD− cell fraction (KATO III cells [9]; [28]): 18.24% | AnnV− 7AAD+ cell fraction (KATO III cells [9]; [28]): 1.32% | AnnV− 7AAD− cell fraction (KATO III cells [9]; [28]): 46.62% | AnnV+ 7AAD+ cell fraction (KATO III cells [9]; [29]): 24.39% | AnnV+ 7AAD− cell fraction (KATO III cells [9]; [29]): 12.36% | AnnV− 7AAD+ cell fraction (KATO III cells [9]; [29]): 0.80% | AnnV− 7AAD− cell fraction (KATO III cells [9]; [29]): 62.46% | apoptotic effect of drug alone (KATO III cells [9]; without TTFields): does not show | cell count (AGS cells [10]; 0.2 uM, + TTFields 150 kHz 1.0 V/cm): 44 % from control | cell count (AGS cells [10]; 0.2 uM, no TTFields): 88 % from control | cell count (AGS cells [10]; 1 uM, + TTFields 150 kHz 1.0 V/cm): 46.5 % from control | cell count (AGS cells [10]; 1 uM, no TTFields): 84 % from control | cell count (AGS cells [10]; 5 uM, + TTFields 150 kHz 1.0 V/cm): 45 % from control | cell count (AGS cells [10]; 5 uM, no TTFields): 77 % from control | cell count (AGS cells [10]; [26]): 59 % from control | cell count (AGS cells [10]; [20]): 83 % from control
